Source: PMC9822133, “Design, Synthesis and Antiproliferative Evaluation of Bis-Indole Derivatives with a Phenyl Linker: Focus on Autophagy” (Molecules, 2022)

Experiments:
[1] = tested on: Beclin-1; experiment: Western blot, Beclin-1; assay type: cell-based, human; details: A549, all time periods, most significantly after 24 h
Description: Beclin-1 plays a key role in the autophagy process, which is activated in cells during periods of stress. It ensures the recruitment of autophagosomal proteins to the pre-autophagosomal structure (PAS) and is part of a complex that is essential for the induction of autophagy (VSP34 complex). It also interacts with proteins from the Bcl-2 family, by which it can be inactivated or cleaved by caspases. This is considered a crosstalk between autophagy and apoptosis. […] There is no mention in the literature focusing on Beclin-1 (and even autophagy) and indole phytoalexins. However, another phytoalexin, resveratrol, has been described to stimulate autophagy in oral cancer cells. […] Later, Fan et al. confirmed the ability of resveratrol to induce autophagy associated with upregulation of Beclin-1 also in lung cancer A549 cells.
A549 cells were seeded on Petri dishes (55 cm^2) at a density of 1 × 10^6 and allowed to culture in the medium. After 24 h, the test substance was added, and the cells were incubated for 24, 48 and 72 h. […] After lysis, the cells were sonicated, and the protein concentration in the samples was quantified using the Pierce® BCA Protein Assay Kit (Thermo Scientific, Rockford, IL, USA) and measured by an automated Cytation™ 3 Cell Imaging Multi-Mode Reader (Biotek) at a wavelength of 570 nm. […]

[2] = tested on: glutathione reductase (GR); experiment: GR activity in treated A549 cells; assay type: cell-based, human; details: A549, 20 µM
Description: Glutathione is an important intracellular molecule involved in carcinogen detoxification. On the other hand, its elevated state in cancer cells is often associated with resistance to chemotherapy. […] Because high levels of GSH are associated with cancer cell resistance, the GHS-depleting effect of compound 49 could be interesting due to new cancer chemosensitizer development. In the case of GST and GR, we hypothesize that an increase in the activity of both enzymes may be a compensatory mechanism induced by GSH depletion.
Both floating and adherent A549 cells were harvested at 24, 48, and 72 h after treatment with compound 49 (20 µM). SOD determination kit, Glutathione Peroxidase Cellular Activity Assay kit, Glutathione Reductase Assay Kit and Glutathione-S-transferase (GST) Assay Kit (all Sigma Aldrich, Germany) were used for the detection of relevant enzyme activity. Reduced glutathione (GSH) content was measured by the method originally described by Floreani et al.. Assays were performed on an M 501 single beam UV/VIS spectrophotometer (Spectronic Camspec Ltd., Leeds, United Kingdom). All measured parameters were calculated per milligram or gram of protein determined using the bicinchoninic acid assay.

With CC(C)(C)OC(=O)n1cc(CNC(=O)Nc2ccc(NC(=O)NCc3cn(C(=O)OC(C)(C)C)c4ccccc34)cc2)c2ccccc21 [Compound 49, N,N′-(1,4-phenylene)bis{N′-[1-(tert-butoxycarbonyl)indol-3-yl]methyl (urea)}] the Beclin-1 expression [1] was “significantly upregulated”, the GR ([2]; 24 h) was 8.200 ± 2.97 μkat/mg Prot and the GR ([2]; 48 h) was 11.270 ± 1.04 μkat/mg Prot. The GR ([2]; 72 h) was 10.100 ± 2.89 μkat/mg Prot.
